Source: article PMC7570852, “Ruthenium(II)/(III) DMSO-Based Complexes of 2-Aminophenyl Benzimidazole with In Vitro and In Vivo Anticancer Activity” (Molecules, 2020)

Experiments:
[1] = test system: MCF7 cells; assay: Cell-cycle analysis by flow cytometry (PI), MCF7; format: cell-based, human; settings: MCF7, 117.6 μg/mL, 24 h
Description: (§1) The Ru(III) complex (2) (117.6 μg/mL) was added to MCF7 and Caco2 cells at a confluence of 70–80% and incubated for 24 h (in a CO2 incubator). The cells were then digested with warm trypsin-EDTA + warm PBS-EDTA (0.25%) (500 + 500 μL) with incubation for 10 min at 37 °C. The mixture was centrifuged (450 rpm) for 5 min, then the supernatant was removed. The mixture was washed twice in warm PBS and the cell pellet was re-suspended in 500 µl warm PBS, centrifuged and the supernatant decanted. A volume of 150 μL PBS + 350 μL ice-cold 70% ethanol was added and incubated at 4 °C for 1 h to fix the cells. To remove ethanol, the mixture was centrifuged at 350 rpm for 10 min and then the supernatant was removed. The mixture was washed twice in warm PBS and the cells were re-suspended in 500 μL of warm PBS, centrifuged, and the supernatant was removed. The cells were resuspended in 100 μL PBS and stored at 4 °C for up to four days. In darkness, the cells were stained with 100 µL of propidium iodide (PI) solution + 50 µL RNase A solution (100 µg/mL) and incubated in darkness for 30–60 min. The stained cells were read in an Attune flow cytometer (Applied Bio-system, Foster City, CA, USA).

[2] = Solution stability by UV-Vis spectroscopy; format: physicochemical; settings: 4% DMSO, 96% PBS, pH 7.4, over 24 h
Description: Stability studies of complexes (1) and (2) were carried out by UV-Vis spectroscopy in the 200–900 nm range. […] The electronic spectra for the solutions were measured over 24 h.

[3] = Median lethal dose (LD50) determination; format: in vivo; settings: mice, intraperitoneal, mortality after 24 h
Description: The LD50 was estimated by the method of Enegide. Briefly, different concentrations of compound (2) was prepared by dissolving a certain weight in 2% DMSO and completed with sterile saline then vortexed and left for 5 min until the solution was clear. Three hundred µL of each concentration (10, 20, 40, 60, 80, 100, 120, and 140 mg/kg) was injected intraperitoneally to eight groups of mice (each one containing four mice), then mortality was recorded after 24 h.

[4] = test system: CT DNA (EB-DNA adduct); assay: Ethidium bromide (EB-DNA) competitive fluorescence assay; format: binding, calf; settings: [DNA] = [EB] = 5 μM
Description: The binding affinity of the metal complexes towards CT DNA was evaluated using competitive fluorescence studies. CT DNA pretreated with ethidium bromide (EB) ([DNA] = [EB] = 5 μM) in Tris-HCl/NaCl buffer (pH = 7.2) was incubated with the complexes in concentrations of 0–90 μM. […] The quenching of EB-DNA adduct fluorescence was followed by monitoring the emission spectra in the wavelength range of 530–650 nm. Upon addition of the metal complexes to the EB-DNA adduct, the quenching binding constant (Kq) at λ = 585 nm is determined from the Stern-Volmer Equation (2):I0/I = 1 + Kq[Q](2) where I0 and I are the fluorescence intensities of EB-DNA in the […] of the metal complexes, respectively, [Q] is the concentration of the tested compounds, and Kq is the quenching constant calculated from the slope of the straight line obtained from plotting Io/I vs. [Q]. In addition, the apparent binding constant can be calculated from Equation (3):KEB[EB] = Kapp[Q](3) where KEB = 1 × 10^7 M^−1 [EB] is the ethidium bromide concentration (5 μM) and [Q] is the concentration of the quencher that provides a 50% intensity reduction of the initial EB-DNA adduct.

[5] = test system: Caco2 cells; assay: DNA fragmentation (agarose gel), Caco2; format: cell-based, human; settings: Caco2, 117.6 µg/mL, 4 h
Description: MCF7 and Caco2 cells were collected and genomic DNA was extracted using a Gene JET genomic DNA extraction kit following the manufacturer’s protocol (Thermo Scientific, #K0721). The extracted DNA samples were run on a 1.5% agarose gel at 50 V for 2 h and the fragment pattern was visualized by ethidium bromide staining under a UV transilluminator.

[6] = test system: SOD, GSH, CAT, TAC; assay: Oxidative stress markers in serum of EAC-bearing mice; format: in vivo
Description: (§2) The mice were divided into the following eight groups (10 mice in each group): • Control group: Mice were intraperitoneally injected with a vehicle (2% DMSO + sterile saline) for 12 days. • I, II, and III control groups: Healthy normal mice were intraperitoneally injected with 6, 12, and 18 mg/kg of complex (2), respectively, for 12 days. • EAC group: Mice were intraperitoneally injected by a single dose of 2.5 × 10^6 viable Ehrlich ascites carcinoma (EAC) cells in PBS. In brief, EAC cells were withdrawn from the EAC mouse’s intraperitoneal cavity, washed, and centrifuged three times with sterile saline. Then, the pellets were suspended in sterile PBS and counted by the trypan blue exclusion assay, which confirmed that the viability of the cells was 98%. • I, II, and III treated groups: Firstly, 30 healthy mice were intraperitoneally injected with a single dose of 2.5 × 10^6 viable EAC cells. After one day; the mice were divided into I, II, and III treated groups (10 mice each group), intraperitoneally injected with 6, 12, and 18 mg/kg Ru(III) complex, respectively, for 12 days.
(§3) The animals were monitored for EAC growth by measuring abdominal size. At the end of the experiment all animals were fasted overnight then sacrificed. Serum samples were collected to study the biological parameters such as liver and kidney function as well as antioxidant enzyme activity. Liver samples from each group were frozen immediately in liquid nitrogen for molecular analysis.
The SOD activity in serum samples was evaluated as described by Dechatelet et al.. GSH was assayed in serum samples by detection of a yellow colored product following a reaction with 5,5’-dithiobis(2-nitrobenzoic acid) (DTNB). The catalase activity was estimated according to Aebi. Total antioxidant capacity (TAC) was determined by the method of Koracevic et al..

[7] = test system: Caco2 cells; assay: Cell-cycle analysis by flow cytometry (PI), Caco2; format: cell-based, human; settings: Caco2, 117.6 μg/mL, 24 h
Description: as §1

[8] = test system: Ehrlich ascites carcinoma (EAC); assay: EAC mouse model: abdominal size and peritoneal angiogenesis; format: in vivo, mice; settings: for mean abdominal circumference: EAC mice
Description: as §2, §3

[9] = three treated groups vs untreated EAC group

Q: For `CS(C)=O.Nc1ccccc1-c1nc2ccccc2[nH]1.O.[Cl][Ru]([Cl])[Cl]` [(2), [Ru(III)Cl3(DMSO)(Hapbim)]·H2O], which “cells in G0/G1 phase” value [1] is on record?
A: Its value is 24%.

Q: What about the “cells in G2/M phase” value [1] of the same molecule?
A: Its value is 55%.

Q: And the “cells in S phase” value [1]?
A: Its value is 21%.

Q: And the “solution stability (UV-Vis spectral change)” value [2]?
A: The value was “changes in absorption bands near 288, 326, and 690 nm after 1 h”.

Q: What about the LD50 [3] of the same molecule?
A: The LD50 was 60 mg/kg.

Q: What about the “Kapp (apparent binding constant)” value ([4]; KEB = 1 × 10^7 M^−1) of the same molecule?
A: Its value is 1.72 ± 0.28 × 10^7 M^−1.

Q: And the “Kq (quenching constant)” value ([4]; Stern-Volmer, 585 nm)?
A: The value was 8.64 ± 0.15 × 10^3 M^−1.

Q: What about the DNA fragmentation [5] of the same molecule?
A: Its DNA fragmentation is “distinct DNA laddering”.

Q: And the SOD levels ([6]; I (6 mg/kg), II (12 mg/kg), III (18 mg/kg) treated groups vs untreated EAC group)?
A: Its SOD levels is “elevated”.

Q: What about the CAT levels [6, 9] of the same molecule?
A: The CAT levels was “increased”.

Q: And the GSH levels [6, 9]?
A: The GSH levels was “increased”.

Q: And the “total antioxidant capacity (TAC)” value ([6]; three treated groups vs untreated EAC group, p < 0.0001)?
A: The value was “significantly increased”.

Q: What about the “cells in G0/G1 phase” value [7] of the same molecule?
A: Its value is 18%.

Q: And the “cells in G2/M phase” value [7]?
A: Its value is 62%.

Q: What about the “cells in S phase” value [7] of the same molecule?
A: Its value is 20%.

Q: And the peritoneal angiogenesis ([8]; EAC mice, 6, 12, 18 mg/kg treated groups vs EAC group)?
A: Its peritoneal angiogenesis is “decreased in a dose-dependent manner”.

Q: And the mean abdominal circumference ([8]; I (6 mg/kg) i.p. for 12 days, untreated EAC 13.20 ± 0.03, control 7.06 ± 0.18)?
A: The mean abdominal circumference was 9.6 ± 0.2 cm.

Q: What about the mean abdominal circumference ([8]; II (12 mg/kg) i.p. for 12 days) of the same molecule?
A: The mean abdominal circumference was 7.30 ± 0.03 cm.

Q: What about the mean abdominal circumference ([8]; III (18 mg/kg) i.p. for 12 days) of the same molecule?
A: The mean abdominal circumference was 7.10 ± 0.03 cm.
